Experiments:
[1] = cited from earlier work
[2] = target: T1, recombinant rat A1 adenosine receptor (Rattus norvegicus, UniProt P25099); experiment: A1 adenosine receptor TRF Eu-GTP binding assay, standard curve for LPS; type: biochemical; conditions: CHO cell membranes, Eu-GTP 10 nM, % basal activity; mean of 8-10 independent assays, LPS 10 pg/mL-100 ng/mL
T1 construct: purchased PerkinElmer, Waltham, Mass; host or cells: CHO cells (membranes)
T1 sequence (P25099 1-326): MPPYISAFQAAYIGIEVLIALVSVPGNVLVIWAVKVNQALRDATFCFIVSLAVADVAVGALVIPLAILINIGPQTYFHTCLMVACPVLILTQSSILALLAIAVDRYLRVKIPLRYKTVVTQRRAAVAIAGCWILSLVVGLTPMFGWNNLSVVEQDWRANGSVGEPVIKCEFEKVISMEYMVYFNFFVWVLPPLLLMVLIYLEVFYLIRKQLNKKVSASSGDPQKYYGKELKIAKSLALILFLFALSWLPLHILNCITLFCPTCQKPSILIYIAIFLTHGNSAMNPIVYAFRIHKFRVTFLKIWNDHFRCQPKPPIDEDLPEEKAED
Experimental: To generate a standard LPS/endotoxin standard curve membranes prepared from CHO cells (1 unit/well corresponding to approximately 20 μg of protein per well; PerkinElmer, Waltham, Mass.) expressing the recombinant rat A1 adenosine receptor are preincubated in an Acrowell filter plate (Pall Life Sciences, Ann Arbor, Mich.) in the presence of LPS/endotoxin (USP, Rockville, Md.) (0.01-750 ng/mL). The endotoxin stock solution is prepared by dissolving 10,000 endotoxin units (corresponding to 1000 ng) in 333 μL of endotoxin free water. […] Each assay point is evaluated in triplicate. […] Fluorescence in each well is determined with an Infinite F-200 PRO (Tecan, Grodig, Austria) using fluorescent top read with an excitation wavelength of 320 nm, emission wavelength of 620 nm, and gain setting of 109. Eu-GTP basal activity is calculated as the difference between total Eu-GTP bound and nonspecific Eu-GTP bound. Percent (%) basal is calculated as follows: [(test condition−nonspecific)/(basal activity)]*100. […] The standard curve is analyzed by nonlinear regression (GraphPad Prism, version 5, GraphPad Software, La Jolla, Calif.) using a sigmoidal dose-response curve with variable slope to determine EC50. Each standard curve represents a minimum of three independent experiments and final data are expressed as the mean±SEM. […]

| Substance | adverse side effect ([1]; in vivo) | reduction of absolute mortality compared to placebo ([1]; sepsis patients, definitive large clinical trials (Bernard et al., 2001)) [%] | sensitivity of the assay for LPS [2] [pg/mL] |
| --- | --- | --- | --- |
| drotrecogin alfa [Xigris, drotrecogin alfa [activated]] | serious adverse side effect of bleeding | 6 | – |
| lipopolysaccharide [LPS] | – | – | 10 |
